In PMC9127186, “Molecular Basis Underlying Hepatobiliary and Renal Excretion of Phenolic Acids of Salvia miltiorrhiza Roots (Danshen)” (Frontiers in Pharmacology, 2022):
Values belong to the molecule of their own block, whether it stands above or below them.

How the values were obtained:
human MRP2 = human MRP2 (Homo sapiens, UniProt Q92887); experiment: Vesicular transport assay, inside-out membrane vesicles expressing human MRP2; details: positive substrate 20 μM, 10 min; human MRP2
Description: (§1) Inside-out membrane vesicles (5 mg protein/mL), prepared from insect cells expressing human multidrug resistance-associated protein (MRP) 2, MRP3, MRP4, breast cancer resistance protein (BCRP), bile salt export pump (BSEP), and multidrug resistance protein (MDR) one and rat Mrp2, Mrp4, Bcrp, and Bsep, and vesicles (5 mg protein/mL; prepared from the insect cells expressing no ABC transporter; serving as negative control) were obtained from Genomembrane (Kanazawa, Japan).
(§2) The test Danshen compounds at 100 µM final concentration were separately incubated with the membrane vesicles for 10 min. Buffer C (50 mM MOPS-tris, 70 mM KCl, 7.5 mM MgCl2, pH 7.0) was used for preincubation and incubation, while buffer D (40 mM MOPS-tris, 70 mM KCl, pH 7.0) was used for vesicle washing. The transport rate (pmol/mg protein/min) of the test Danshen compound was calculated using Equation (2): Transport=(CV×VV)/T/WV (2) where C V, V V, T, and W V represent concentration of the compound in vesicular lysates supernatant (μM), volume of the lysates (μL), incubation time (10 min), and amount of vesicle protein amount per well (0.05 mg), respectively. Differential transport of the test Danshen compound between ATP-containing vesicles and AMP-containing vesicles was defined as net transport ratio (TransportATP/TransportAMP ratio). […] All the incubation samples were analyzed by liquid chromatography/mass spectrometry.

human MRP3 = human MRP3 (Homo sapiens, UniProt O15438); experiment: Vesicular transport assay, inside-out membrane vesicles expressing human MRP3; details: positive substrate 20 μM, 10 min; human MRP3
Description: as §1, §2

rat Mrp2 = rat Mrp2 (Rattus norvegicus, UniProt Q63120); experiment: Vesicular transport assay, inside-out membrane vesicles expressing rat Mrp2; details: positive substrate 20 μM, 10 min; rat Mrp2
Sequence of rat Mrp2 (Q63120 whole entry): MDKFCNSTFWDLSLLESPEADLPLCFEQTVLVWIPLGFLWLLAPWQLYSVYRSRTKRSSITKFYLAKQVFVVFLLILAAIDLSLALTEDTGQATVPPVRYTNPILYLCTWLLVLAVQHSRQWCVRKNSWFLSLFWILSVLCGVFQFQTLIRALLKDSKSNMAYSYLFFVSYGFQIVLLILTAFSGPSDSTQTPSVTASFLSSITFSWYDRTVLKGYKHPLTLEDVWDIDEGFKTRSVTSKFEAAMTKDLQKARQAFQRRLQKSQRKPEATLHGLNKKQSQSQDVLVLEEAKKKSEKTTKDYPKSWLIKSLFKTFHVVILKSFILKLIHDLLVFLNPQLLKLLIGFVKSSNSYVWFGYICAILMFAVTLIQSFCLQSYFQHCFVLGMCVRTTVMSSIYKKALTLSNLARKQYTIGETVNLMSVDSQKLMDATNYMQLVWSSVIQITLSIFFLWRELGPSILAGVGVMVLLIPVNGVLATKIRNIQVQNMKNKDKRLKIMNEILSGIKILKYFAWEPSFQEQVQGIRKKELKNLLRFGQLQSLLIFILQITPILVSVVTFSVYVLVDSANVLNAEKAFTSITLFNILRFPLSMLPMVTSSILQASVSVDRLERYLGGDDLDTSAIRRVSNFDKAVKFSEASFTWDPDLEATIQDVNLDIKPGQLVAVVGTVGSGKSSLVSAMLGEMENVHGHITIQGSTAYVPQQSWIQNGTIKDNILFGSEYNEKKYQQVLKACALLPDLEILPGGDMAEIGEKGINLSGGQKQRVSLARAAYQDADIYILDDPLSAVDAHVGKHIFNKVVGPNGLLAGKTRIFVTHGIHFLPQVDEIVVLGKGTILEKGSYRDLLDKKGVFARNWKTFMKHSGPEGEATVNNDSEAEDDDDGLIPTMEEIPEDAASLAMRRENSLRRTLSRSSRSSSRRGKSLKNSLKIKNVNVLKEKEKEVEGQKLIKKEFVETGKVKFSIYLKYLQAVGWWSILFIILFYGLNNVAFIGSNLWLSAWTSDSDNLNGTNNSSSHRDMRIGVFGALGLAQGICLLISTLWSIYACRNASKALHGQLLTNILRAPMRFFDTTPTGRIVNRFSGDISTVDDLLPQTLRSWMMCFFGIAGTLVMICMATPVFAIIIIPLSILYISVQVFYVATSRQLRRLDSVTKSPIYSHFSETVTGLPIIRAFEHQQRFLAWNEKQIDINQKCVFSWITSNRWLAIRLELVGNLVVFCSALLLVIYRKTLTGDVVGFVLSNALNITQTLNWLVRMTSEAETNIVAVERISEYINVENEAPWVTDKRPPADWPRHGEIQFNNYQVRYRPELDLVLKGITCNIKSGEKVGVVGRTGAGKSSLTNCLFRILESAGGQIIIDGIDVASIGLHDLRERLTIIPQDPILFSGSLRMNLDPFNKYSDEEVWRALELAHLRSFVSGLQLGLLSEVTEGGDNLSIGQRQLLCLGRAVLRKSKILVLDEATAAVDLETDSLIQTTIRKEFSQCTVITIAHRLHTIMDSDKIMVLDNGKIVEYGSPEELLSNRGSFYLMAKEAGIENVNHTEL
Description: as §1, §2

human MDR1 = human MDR1 (Homo sapiens, UniProt P08183); experiment: Vesicular transport assay, inside-out membrane vesicles expressing human MDR1; details: positive substrate 20 μM, 10 min; human MDR1
Sequence of human MDR1 (P08183 whole entry): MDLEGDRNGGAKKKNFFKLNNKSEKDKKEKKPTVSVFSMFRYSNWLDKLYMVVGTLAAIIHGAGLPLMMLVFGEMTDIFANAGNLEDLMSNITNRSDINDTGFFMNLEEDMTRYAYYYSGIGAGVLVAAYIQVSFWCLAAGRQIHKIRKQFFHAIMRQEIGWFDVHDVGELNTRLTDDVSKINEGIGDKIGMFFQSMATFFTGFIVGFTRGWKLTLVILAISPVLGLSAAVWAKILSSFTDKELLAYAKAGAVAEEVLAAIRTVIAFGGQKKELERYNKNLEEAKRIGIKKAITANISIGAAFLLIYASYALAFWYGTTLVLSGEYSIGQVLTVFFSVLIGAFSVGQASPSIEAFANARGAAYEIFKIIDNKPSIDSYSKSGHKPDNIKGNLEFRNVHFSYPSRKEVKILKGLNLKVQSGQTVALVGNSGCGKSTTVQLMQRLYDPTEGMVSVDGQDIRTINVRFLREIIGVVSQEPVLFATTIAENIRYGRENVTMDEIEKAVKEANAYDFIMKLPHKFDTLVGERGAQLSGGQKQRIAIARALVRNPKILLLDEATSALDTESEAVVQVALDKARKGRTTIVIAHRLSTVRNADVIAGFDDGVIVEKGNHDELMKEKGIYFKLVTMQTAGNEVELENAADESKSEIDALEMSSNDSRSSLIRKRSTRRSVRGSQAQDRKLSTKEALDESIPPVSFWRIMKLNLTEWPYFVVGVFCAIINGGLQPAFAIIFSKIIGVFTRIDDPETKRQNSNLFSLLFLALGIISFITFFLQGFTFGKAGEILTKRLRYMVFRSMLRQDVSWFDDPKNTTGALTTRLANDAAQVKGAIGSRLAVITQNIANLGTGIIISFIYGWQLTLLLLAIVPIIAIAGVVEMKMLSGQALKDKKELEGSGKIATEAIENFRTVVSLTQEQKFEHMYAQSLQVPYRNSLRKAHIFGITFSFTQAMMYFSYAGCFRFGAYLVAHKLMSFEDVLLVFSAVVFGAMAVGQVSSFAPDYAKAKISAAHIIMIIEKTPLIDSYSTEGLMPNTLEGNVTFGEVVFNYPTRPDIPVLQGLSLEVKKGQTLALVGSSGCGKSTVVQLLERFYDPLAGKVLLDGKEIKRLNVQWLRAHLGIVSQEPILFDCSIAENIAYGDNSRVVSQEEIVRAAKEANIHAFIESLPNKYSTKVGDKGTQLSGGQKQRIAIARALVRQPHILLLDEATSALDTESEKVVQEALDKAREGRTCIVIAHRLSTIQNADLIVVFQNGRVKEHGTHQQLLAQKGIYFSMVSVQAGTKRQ
Description: as §1, §2

human OATP1B1 = target: T1, human OATP1B1 (Homo sapiens, UniProt Q9Y6L6); experiment: Cellular transport assay, HEK-293 cells expressing human OATP1B1; details: positive substrate 20 μM, 10 min; human OATP1B1
T1 sequence (Q9Y6L6 1-691): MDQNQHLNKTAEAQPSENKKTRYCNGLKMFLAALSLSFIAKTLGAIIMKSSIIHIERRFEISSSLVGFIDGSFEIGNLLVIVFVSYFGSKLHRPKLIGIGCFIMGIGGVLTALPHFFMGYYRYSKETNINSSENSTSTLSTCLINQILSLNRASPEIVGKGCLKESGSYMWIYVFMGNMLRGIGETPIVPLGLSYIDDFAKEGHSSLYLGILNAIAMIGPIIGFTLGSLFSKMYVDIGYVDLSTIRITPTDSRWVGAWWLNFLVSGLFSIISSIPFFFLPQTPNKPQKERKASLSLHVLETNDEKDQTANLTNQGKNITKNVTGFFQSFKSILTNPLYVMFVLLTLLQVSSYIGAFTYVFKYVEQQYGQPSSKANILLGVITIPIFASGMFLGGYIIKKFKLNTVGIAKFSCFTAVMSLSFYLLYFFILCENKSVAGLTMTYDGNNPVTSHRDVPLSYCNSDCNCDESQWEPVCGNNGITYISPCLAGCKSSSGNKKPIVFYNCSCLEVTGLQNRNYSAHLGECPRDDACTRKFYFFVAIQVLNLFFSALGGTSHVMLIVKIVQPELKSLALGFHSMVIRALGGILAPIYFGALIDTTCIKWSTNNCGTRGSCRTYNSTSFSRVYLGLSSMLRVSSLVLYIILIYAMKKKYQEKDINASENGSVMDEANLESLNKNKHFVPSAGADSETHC
Description: (§3) Briefly, HEK-293 cells were grown, at 37°C and 5% CO2, in Dulbecco’s modified Eagle’s medium, which was fortified with 10% fetal bovine serum, 1% minimal essential medium nonessential amino acids, and 1% antibiotic-antimycotic solution. A day before transfection, cells were seeded onto 24-well poly-D-lysine-coated plates at a density of 2 × 10^5 cells per well. After incubation at 37°C and 5% CO2 for 24 h, the expression plasmid and the empty vector were introduced separately into the HEK293 cells with Lipofectamine 2000 transfection reagent (Invitrogen, Carlsbad, CA, United States), according to the manufacturer’s protocol to yield transporter-expressing cells and mock cells, respectively.
(§4) Transport studies were performed 48 h after the transfection. […] Differential uptake between the transfected cells and mock cells was defined as net transport ratio (TransportTC/TransportMC ratio), where TransportTC and TransportMC are the transport rates of a test Danshen compound into transfected and mock cells, respectively. […] The determination was performed under linear uptake conditions by incubation for 5 min. Table 1 summarizes the final concentrations of the test Danshen compounds for different transporters. All the incubation samples were analyzed by liquid chromatography/mass spectrometry.
(§5) GraFit software (version 5.0; Erithacus Software Ltd, Surrey, United Kingdom) was used to determine the K m and V max values by nonlinear regression analysis of initial transport rates as a function of substrate concentration.

OATP1B3 = target: T2, OATP1B3 (Homo sapiens, UniProt Q9NPD5); experiment: Cellular transport assay, HEK-293 cells expressing human OATP1B3; details: positive substrate 20 μM, 10 min; human OATP1B3
T2 sequence (Q9NPD5 1-702): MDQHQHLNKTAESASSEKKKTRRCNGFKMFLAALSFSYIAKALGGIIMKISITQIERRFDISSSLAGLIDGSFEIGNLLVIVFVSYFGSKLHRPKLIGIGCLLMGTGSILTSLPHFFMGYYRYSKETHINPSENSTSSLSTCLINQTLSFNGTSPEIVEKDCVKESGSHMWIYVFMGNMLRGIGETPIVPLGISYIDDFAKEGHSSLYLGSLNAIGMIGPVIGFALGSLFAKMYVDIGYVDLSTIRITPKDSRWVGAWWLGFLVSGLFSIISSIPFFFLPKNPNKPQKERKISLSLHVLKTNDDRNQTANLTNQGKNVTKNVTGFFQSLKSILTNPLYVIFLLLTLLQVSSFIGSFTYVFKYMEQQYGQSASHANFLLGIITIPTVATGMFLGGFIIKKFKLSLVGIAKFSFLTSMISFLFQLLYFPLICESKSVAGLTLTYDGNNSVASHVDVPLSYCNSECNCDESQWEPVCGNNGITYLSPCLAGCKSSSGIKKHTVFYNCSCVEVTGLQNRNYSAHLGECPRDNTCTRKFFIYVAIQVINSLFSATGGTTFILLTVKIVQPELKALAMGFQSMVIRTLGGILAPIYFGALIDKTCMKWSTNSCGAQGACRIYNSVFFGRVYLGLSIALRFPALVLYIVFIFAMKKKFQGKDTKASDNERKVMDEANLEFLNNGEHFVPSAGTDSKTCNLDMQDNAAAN
Description: as §3, §4, §5

rat Oatp1b2 = target: T3, rat Oatp1b2 (Rattus norvegicus, UniProt Q9QZX8); experiment: Cellular transport assay, HEK-293 cells expressing rat Oatp1b2; details: positive substrate 20 μM, 10 min; rat Oatp1b2
T3 sequence (Q9QZX8 1-687): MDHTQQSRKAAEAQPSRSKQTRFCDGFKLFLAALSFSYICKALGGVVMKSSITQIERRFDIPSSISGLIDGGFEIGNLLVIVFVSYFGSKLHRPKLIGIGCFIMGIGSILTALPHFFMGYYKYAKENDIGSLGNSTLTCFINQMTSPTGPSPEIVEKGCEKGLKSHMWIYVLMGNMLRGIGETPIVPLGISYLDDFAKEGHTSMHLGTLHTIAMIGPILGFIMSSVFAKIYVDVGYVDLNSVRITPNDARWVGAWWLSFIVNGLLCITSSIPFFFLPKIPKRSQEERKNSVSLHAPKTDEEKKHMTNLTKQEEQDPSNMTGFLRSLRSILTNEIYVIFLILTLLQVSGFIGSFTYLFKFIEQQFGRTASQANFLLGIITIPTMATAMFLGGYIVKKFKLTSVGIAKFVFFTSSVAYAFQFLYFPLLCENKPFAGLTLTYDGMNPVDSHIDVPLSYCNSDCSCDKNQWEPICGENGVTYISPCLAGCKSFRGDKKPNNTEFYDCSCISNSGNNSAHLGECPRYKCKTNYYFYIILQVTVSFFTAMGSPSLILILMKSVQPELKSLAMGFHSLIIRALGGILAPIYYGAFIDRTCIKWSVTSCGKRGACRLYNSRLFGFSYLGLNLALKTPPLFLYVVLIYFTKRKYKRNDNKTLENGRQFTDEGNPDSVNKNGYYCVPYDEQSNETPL
Description: as §3, §4, §5

rat Oat2 = target: T4, rat Oat2 (Rattus norvegicus, UniProt Q5RLM2); experiment: Cellular transport assay, HEK-293 cells expressing rat Oat2; details: positive substrate 20 μM, 10 min; rat Oat2
T4 sequence (Q5RLM2 1-535): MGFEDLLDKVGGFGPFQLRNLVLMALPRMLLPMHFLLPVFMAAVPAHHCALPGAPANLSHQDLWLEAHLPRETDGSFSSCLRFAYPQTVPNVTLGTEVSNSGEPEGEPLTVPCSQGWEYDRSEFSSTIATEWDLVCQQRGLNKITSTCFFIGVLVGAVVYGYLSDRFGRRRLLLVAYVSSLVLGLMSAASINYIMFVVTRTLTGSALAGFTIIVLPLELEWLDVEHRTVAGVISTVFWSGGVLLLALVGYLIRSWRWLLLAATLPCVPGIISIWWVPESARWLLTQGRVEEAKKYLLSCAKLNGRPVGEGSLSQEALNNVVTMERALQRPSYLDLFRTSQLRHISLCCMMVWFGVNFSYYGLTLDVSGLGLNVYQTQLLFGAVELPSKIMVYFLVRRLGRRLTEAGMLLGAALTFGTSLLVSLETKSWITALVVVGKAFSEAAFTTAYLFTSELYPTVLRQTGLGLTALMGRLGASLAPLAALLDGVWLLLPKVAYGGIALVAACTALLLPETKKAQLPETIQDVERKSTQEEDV
Description: as §3, §4, §5

human OAT2 = target: T5, human OAT2 (Homo sapiens, UniProt Q9Y694); experiment: Cellular transport assay, HEK-293 cells expressing human OAT2; details: positive substrate 20 μM, 10 min; human OAT2
T5 sequence (Q9Y694 1-546 isoform Q9Y694-2): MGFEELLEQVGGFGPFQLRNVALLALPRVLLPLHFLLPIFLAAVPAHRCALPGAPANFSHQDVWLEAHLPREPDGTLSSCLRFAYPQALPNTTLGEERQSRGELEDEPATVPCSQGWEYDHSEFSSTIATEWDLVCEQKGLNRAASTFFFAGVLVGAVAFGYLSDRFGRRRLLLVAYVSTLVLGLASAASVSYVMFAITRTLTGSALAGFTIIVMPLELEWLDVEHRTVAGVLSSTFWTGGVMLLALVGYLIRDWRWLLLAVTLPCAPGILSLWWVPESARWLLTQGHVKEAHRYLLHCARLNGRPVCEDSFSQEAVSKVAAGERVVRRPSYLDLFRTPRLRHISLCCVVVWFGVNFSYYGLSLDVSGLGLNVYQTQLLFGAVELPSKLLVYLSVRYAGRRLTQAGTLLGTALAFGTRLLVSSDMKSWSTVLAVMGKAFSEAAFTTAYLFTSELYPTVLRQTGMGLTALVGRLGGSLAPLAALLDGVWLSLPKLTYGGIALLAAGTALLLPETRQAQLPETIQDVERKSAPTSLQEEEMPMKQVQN
Description: as §3, §4, §5

[1] = substrate: O=C(/C=C/c1ccc(O)c(O)c1)O[C@H](Cc1ccc(O)c(O)c1)C(=O)O; experiment: cells, lysate or membranes named; details: other: human renal apical uptake OAT4; 5 min incubation, concentrations in Table 1; 37.0 °C

Sequence of human MRP2 (Q92887 whole entry): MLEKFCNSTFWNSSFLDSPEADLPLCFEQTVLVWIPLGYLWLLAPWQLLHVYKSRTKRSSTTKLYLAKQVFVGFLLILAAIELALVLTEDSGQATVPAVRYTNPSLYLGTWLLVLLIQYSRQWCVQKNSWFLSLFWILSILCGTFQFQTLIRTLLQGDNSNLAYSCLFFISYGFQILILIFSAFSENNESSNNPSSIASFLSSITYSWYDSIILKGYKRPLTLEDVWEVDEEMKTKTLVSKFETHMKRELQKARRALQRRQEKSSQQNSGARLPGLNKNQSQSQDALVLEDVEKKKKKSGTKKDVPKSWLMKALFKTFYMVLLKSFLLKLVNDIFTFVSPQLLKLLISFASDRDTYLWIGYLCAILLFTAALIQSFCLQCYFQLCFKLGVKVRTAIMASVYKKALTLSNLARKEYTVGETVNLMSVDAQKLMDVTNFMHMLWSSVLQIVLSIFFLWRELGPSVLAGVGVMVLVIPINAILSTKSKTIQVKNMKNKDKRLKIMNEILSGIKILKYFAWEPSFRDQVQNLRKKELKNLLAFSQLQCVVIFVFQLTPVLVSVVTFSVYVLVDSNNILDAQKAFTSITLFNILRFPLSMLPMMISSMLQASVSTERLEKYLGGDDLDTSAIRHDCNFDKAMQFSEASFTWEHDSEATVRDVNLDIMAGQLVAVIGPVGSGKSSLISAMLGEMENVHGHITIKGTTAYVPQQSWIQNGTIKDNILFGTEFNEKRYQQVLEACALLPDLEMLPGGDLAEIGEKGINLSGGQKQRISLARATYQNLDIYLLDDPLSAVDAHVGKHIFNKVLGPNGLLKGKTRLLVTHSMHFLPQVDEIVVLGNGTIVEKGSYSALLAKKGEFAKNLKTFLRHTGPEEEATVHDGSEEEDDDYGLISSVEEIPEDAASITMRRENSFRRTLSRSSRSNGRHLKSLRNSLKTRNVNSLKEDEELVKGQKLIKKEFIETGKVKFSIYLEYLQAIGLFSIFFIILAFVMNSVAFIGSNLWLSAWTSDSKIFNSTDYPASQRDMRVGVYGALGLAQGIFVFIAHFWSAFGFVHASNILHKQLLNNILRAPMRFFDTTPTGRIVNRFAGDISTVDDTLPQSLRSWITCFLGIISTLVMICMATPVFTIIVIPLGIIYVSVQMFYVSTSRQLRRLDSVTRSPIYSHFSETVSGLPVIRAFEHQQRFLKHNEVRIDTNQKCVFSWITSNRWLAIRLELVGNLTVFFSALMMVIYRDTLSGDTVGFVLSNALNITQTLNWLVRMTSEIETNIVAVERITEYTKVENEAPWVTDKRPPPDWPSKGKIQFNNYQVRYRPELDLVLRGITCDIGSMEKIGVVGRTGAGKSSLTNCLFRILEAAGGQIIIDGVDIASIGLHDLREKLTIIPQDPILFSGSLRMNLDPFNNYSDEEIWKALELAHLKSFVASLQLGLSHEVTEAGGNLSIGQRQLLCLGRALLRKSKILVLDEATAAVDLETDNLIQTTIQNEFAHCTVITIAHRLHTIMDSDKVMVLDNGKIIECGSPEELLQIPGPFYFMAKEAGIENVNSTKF

TransportATP/TransportAMP ratio, positive substrate (human MRP2): 7.23 ± 1.04 (E217βG)
TransportATP/TransportAMP ratio, positive substrate (human MRP3): 6.79 ± 1.49 (E217βG)
TransportATP/TransportAMP ratio, positive substrate (rat Mrp2): 3.54 ± 0.32 (E217βG)
Molecule: C[C@]12CC[C@@H]3c4ccc(O)cc4CC[C@H]3[C@@H]1CC[C@@H]2O[C@@H]1O[C@H](C(=O)O)[C@@H](O)[C@H](O)[C@H]1O [E217βG, estradiol-17β-D-glucuronide, reference compound]

TransportATP/TransportAMP ratio, positive substrate (human MDR1): 5.13 ± 0.87 (GL)
TransportTC/TransportMC ratio, positive substrate (human OATP1B1): 79.5 ± 1.3 (GL)
TransportTC/TransportMC ratio, positive substrate (OATP1B3): 33.1 ± 0.5 (GL)
TransportTC/TransportMC ratio, positive substrate (rat Oatp1b2): 121 ± 2 (GL)
Molecule: CC1(C)[C@@H](O[C@H]2O[C@H](C(=O)O)[C@@H](O)[C@H](O)[C@H]2O[C@@H]2O[C@H](C(=O)O)[C@@H](O)[C@H](O)[C@H]2O)CC[C@]2(C)[C@H]3C(=O)C=C4[C@@H]5C[C@@](C)(C(=O)O)CC[C@]5(C)CC[C@@]4(C)[C@]3(C)CC[C@@H]12 [GL, glycyrrhizin, reference compound]

The next lines start with the molecule.

Molecule: CCCCC[C@H](O)/C=C/[C@@H]1[C@@H](C/C=C\CCCC(=O)O)[C@@H](O)C[C@H]1O [PGF2α, prostaglandin F2α, reference compound]
TransportTC/TransportMC ratio, positive substrate (rat Oat2): 24.3 ± 3.3 (PGF2α)
TransportTC/TransportMC ratio, positive substrate (human OAT2): 70.2 ± 6.6 (PGF2α)

B1: human OAT4 (Homo sapiens) (protein)
chain: MAFSKLLEQAGGVGLFQTLQVLTFILPCLMIPSQMLLENFSAAIPGHRCWTHMLDNGSAVSTNMTPKALLTISIPPGPNQGPHQCRRFRQPQWQLLDPNATATSWSEADTEPCVDGWVYDRSVFTSTIVAKWDLVCSSQGLKPLSQSIFMSGILVGSFIWGLLSYRFGRKPMLSWCCLQLAVAGTSTIFAPTFVIYCGLRFVAAFGMAGIFLSSLTLMVEWTTTSRRAVTMTVVGCAFSAGQAALGGLAFALRDWRTLQLAASVPFFAISLISWWLPESARWLIIKGKPDQALQELRKVARINGHKEAKNLTIEVLMSSVKEEVASAKEPRSVLDLFCVPVLRWRSCAMLVVNFSLLISYYGLVFDLQSLGRDIFLLQALFGAVDFLGRATTALLLSFLGRRTIQAGSQAMAGLAILANMLVPQDLQTLRVVFAVLGKGCFGISLTCLTIYKAELFPTPVRMTADGILHTVGRLGAMMGPLILMSRQALPLLPPLLYGVISIASSLVVLFFLPETQGLPLPDTIQDLESQKSTAAQGNRQEAVTVESTSL
Vmax [1]: 4.75e-05 µmol/min/mg
Vmax/Km [1]: 0.15 µL/min/mg
